Experimental data from PMC9849758, “Chemically diverse activity-based probes with unexpected inhibitory mechanisms targeting trypsin-like serine proteases” (Frontiers in Chemistry, 2023).
Structures can show the parent of a compound that is named as a salt. Where two headings read alike, the source gives them in different places.

Tests used:
Assay in all cases: IC50 determination, spectrophotometric protease assay
Format in all cases: biochemical
[1] = target: T1, β-tryptase (recombinant tryptase β-2) (Homo sapiens, UniProt P20231)
T1 construct: purchased EnzoLife Sciences
T1 sequence (P20231 31-275): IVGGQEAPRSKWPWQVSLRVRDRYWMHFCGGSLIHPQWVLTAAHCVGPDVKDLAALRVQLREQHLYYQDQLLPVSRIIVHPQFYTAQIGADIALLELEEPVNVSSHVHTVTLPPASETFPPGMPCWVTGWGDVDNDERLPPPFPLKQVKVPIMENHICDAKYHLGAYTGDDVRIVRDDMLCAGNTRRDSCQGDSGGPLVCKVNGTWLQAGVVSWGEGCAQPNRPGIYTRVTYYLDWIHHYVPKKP
Protocol: (§1) The IC50 values were determined using a spectrophotometric assay. All the experiments were conducted in duplicate. The readout consisted of evaluating the protease-mediated release of the chromophore para-nitroaniline (pNA) or fluorophore 7-amino-4-methyl coumarin (AMC) moieties from the respective substrates. Enzymatic activity was measured for 30 min at 37°C. All compounds were initially screened at three concentrations (10, 1, and .1 μM) to estimate the range of the IC50 value. Those which were able to reduce protease activity by at least 50% at a concentration of 10 μM were submitted to an exact IC50 determination. […] A third independent experiment was performed when the standard deviation of the two independent experiments was higher than […]. IC50 values were obtained by fitting the data with the four-parameter logistics equation using GraphPad Prism 9.
(§2) The conditions for each protease are described as follows, the concentration of substrate used was at the corresponding Km.

[2] = target: T2, TLCK-treated pancreatic bovine chymotrypsin (Bos taurus, UniProt P00766); details: for ChTryp IC50: alkyne probes
T2 construct: TLCK-treated pancreatic bovine chymotrypsin (Sigma-Aldrich); purchased Sigma-Aldrich; host or cells: bovine pancreas
Protocol: as §1, §2

[3] = target: T3, uPA (recombinant urokinase plasminogen activator) (Homo sapiens, UniProt P00749)
T3 construct: purchased HYPHEN BioMed
Protocol: as §1, §2

[4] = target: T4, Thrombin (recombinant thrombin) (Homo sapiens, UniProt P00734)
T4 construct: purchased R&D
Protocol: as §1, §2

[5] = target: T5, Trypsin-3 (recombinant trypsin-3) (Homo sapiens, UniProt P35030); details: for Trypsin-3 IC50: alkyne probes
T5 construct: purchased R&D
T5 sequence (P35030 1-304): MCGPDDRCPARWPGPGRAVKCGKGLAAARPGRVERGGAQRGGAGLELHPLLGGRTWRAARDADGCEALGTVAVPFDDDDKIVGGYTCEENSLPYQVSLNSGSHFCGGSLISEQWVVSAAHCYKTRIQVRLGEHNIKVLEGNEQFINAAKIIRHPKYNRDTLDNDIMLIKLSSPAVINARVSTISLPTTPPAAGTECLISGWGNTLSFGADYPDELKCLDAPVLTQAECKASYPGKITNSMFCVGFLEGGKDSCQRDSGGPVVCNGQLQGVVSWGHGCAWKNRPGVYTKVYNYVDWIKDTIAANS
Protocol: as §1, §2

[6] = target: T6, Cathepsin G (cathepsin G human neutrophil) (Homo sapiens, UniProt P08311); details: for CatG IC50: alkyne probes
T6 construct: Cathepsin G (cathepsin G human neutrophil, Sigma-Aldrich); purchased Sigma-Aldrich; host or cells: human neutrophil
T6 sequence (P08311 21-255): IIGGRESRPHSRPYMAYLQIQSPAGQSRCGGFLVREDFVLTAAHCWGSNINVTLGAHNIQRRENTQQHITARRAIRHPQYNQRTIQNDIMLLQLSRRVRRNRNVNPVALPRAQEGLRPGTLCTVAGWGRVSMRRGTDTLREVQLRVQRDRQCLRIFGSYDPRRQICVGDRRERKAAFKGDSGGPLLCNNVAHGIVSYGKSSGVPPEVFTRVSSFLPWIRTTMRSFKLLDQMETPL
Protocol: as §1, §2

[7] = target: T7, Neutrophil Elastase (recombinant neutrophil elastase) (Homo sapiens, UniProt P08246); details: for NE IC50: alkyne probes
T7 construct: purchased Enzo LifeSciences
T7 sequence (P08246 30-267): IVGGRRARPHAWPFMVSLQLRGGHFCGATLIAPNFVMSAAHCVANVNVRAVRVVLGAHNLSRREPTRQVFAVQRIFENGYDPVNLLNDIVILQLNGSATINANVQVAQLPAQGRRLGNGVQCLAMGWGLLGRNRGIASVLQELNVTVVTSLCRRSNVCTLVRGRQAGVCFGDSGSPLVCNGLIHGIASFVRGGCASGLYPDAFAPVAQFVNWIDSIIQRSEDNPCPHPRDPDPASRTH
Protocol: as §1, §2

[8] = 15 min preincubation at 37°C, mean ± SD
[9] = alkyne probes, 15 min preincubation at 37°C, mean ± SD
[10] = read-out: β-tryptase IC50, desthiobiotin probes, 15 min preincubation at 37°C, mean ± SD
[11] = read-out: ChTryp IC50, desthiobiotin probes, 15 min preincubation at 37°C, mean ± SD
[12] = read-out: uPA IC50, desthiobiotin probes, 15 min preincubation at 37°C, mean ± SD
[13] = read-out: Thrombin IC50, desthiobiotin probes, 15 min preincubation at 37°C, mean ± SD
[14] = read-out: Trypsin-3 IC50, desthiobiotin probes, 15 min preincubation at 37°C, mean ± SD
[15] = read-out: CatG IC50, desthiobiotin probes, 15 min preincubation at 37°C, mean ± SD
[16] = read-out: NE IC50, desthiobiotin probes, 15 min preincubation at 37°C, mean ± SD

Row | Compound | IC50 [1] [µM] | IC50 [2] [µM] | IC50 [3] [µM] | IC50 [4] [µM] | IC50 [5] [µM] | IC50 [6] [µM] | IC50 [7] [µM] | further results
1 | C#CCCCOC(=O)NC(C(C)C)P(=O)(Oc1ccccc1)Oc1ccccc1 (stereo not shown) [compound 13] | > 10 | > 10 | > 10 | > 10 | > 10 | > 10 | > 10 | NE IC50 [7, 8]: not potent
2 | C#CCCCOC(=O)NC(CCCCN)P(=O)(Oc1ccc(NC(=O)OC)cc1)Oc1ccc(NC(=O)OC)cc1 (stereo not shown) [30b] | 0.68 ± 0.05 | > 10 | 2.44 ± 0.35 | 1.18 ± 0.07 | 0.006 ± 0.0006 | 0.56 ± 0.002 | > 10 | Trypsin-3 IC50 [5, 8]: nanomolar inhibition
3 | C#CCCCOC(=O)NC(Cc1ccccc1)P(=O)(Oc1ccccc1)Oc1ccccc1 (stereo not shown) [compound 12] | > 10 | 1.54 ± 1.34 | > 10 | > 10 | > 10 | > 10 | > 10 | –
4 | C#CCCCOC(=O)NC(c1ccc(N)cc1)P(=O)(Oc1ccc(NC(C)=O)cc1)Oc1ccc(NC(C)=O)cc1 (stereo not shown) [20b] | > 10 | – | > 10 | – | – | > 10 | – | –
5 | C#CCCCOC(=O)NC(Cc1ccc(N)cc1)P(=O)(Oc1ccc(Cl)cc1)Oc1ccc(Cl)cc1 (stereo not shown) [18b] | > 10 | 0.19 ± 0.14 | 6.38 ± 0.52 | 7.88 ± 0.61 | 1.72 ± 0.19 | 0.36 ± 0.01 | > 10 | ChTryp IC50 [2, 8]: submicromolar; CatG IC50 [6, 8]: submicromolar
6 | C#CCCCOC(=O)NC(CCCN)P(=O)(Oc1ccccc1)Oc1ccccc1.O=C(O)C(F)(F)F (stereo not shown) [14b] | > 10 | > 10 | > 10 | > 10 | > 10 | > 10 | > 10 | β-tryptase IC50 [1, 9]: inactive; ChTryp IC50 [2, 8]: inactive; uPA IC50 [3, 9]: inactive; Thrombin IC50 [4, 9]: inactive; Trypsin-3 IC50 [5, 8]: inactive; CatG IC50 [6, 8]: inactive; NE IC50 [7, 8]: inactive
7 | C#CCCCOC(=O)NC(CCCCN)P(=O)(Oc1ccccc1)Oc1ccccc1.O=C(O)C(F)(F)F (stereo not shown) [29b] | 3.96 ± 0.5 | 5.87 ± 3.39 | 5.27 ± 0.15 | 7.36 ± 0.25 | 0.07 ± 0.02 | > 10 | > 10 | Trypsin-3 IC50 [5, 8]: nanomolar inhibition
8 | C#CCCCOC(=O)NC(Cc1ccc(N)cc1)P(=O)(Oc1ccc(NC(C)=O)cc1)Oc1ccc(NC(C)=O)cc1 (stereo not shown) [17b] | > 10 | 0.49 ± 0.28 | > 10 | 2.97 ± 0.07 | 3.71 ± 0.71 | 0.37 ± 0.008 | > 10 | ChTryp IC50 [2, 8]: submicromolar; CatG IC50 [6, 8]: submicromolar
9 | C#CCCCOC(=O)NC(Cc1ccc(N)cc1)P(=O)(Oc1ccccc1)Oc1ccccc1 (stereo not shown) [16b] | > 10 | 2.67 ± 0.57 | > 10 | > 10 | 6.85 ± 0.8 | 3.74 ± 0.27 | > 10 | –
10 | CC(=O)Nc1ccc(OP(=O)(Oc2ccc(NC(C)=O)cc2)C(CCCCN)NC(=O)OCCCc2cn(CCOCCOCCOCCNC(=O)CCCCC[C@H]3NC(=O)N[C@H]3C)nn2)cc1 (stereo partly drawn) [49b, 3-(1-(18-((4R,5S)-5-methyl-2-oxoimidazolidin-4-yl)-13-oxo-3,6,9-trioxa-12-azaoctadecyl)-1H-1,2,3-triazol-4-yl)propyl (5-amino-1-(bis(4-acetamidophenoxy)phosphoryl)pentyl)carbamate trifluoroacetate salt] | – | – | – | – | – | – | – | IC50 [1, 10]: 1.11 ± 0.05 µM; IC50 [2, 11]: > 10 µM; IC50 [3, 12]: 6.75 ± 0.52 µM; IC50 [4, 13]: 1.18 ± 0.04 µM; IC50 [5, 14]: 0.09 ± 0.005 µM; IC50 [6, 15]: 4.47 ± 0.51 µM; IC50 [7, 16]: > 10 µM
11 | C[C@@H]1NC(=O)N[C@@H]1CCCCCC(=O)NCCOCCOCCOCCn1cc(CCCOC(=O)NC(CCCCN)P(=O)(Oc2ccccc2)Oc2ccccc2)nn1 (stereo partly shown) [47b] | – | – | – | – | – | – | – | IC50 [1, 10]: 2.49 ± 0.19 µM; IC50 [2, 11]: > 10 µM; IC50 [3, 12]: 4.62 ± 0.17 µM; IC50 [4, 13]: 3.55 ± 0.17 µM; IC50 [5, 14]: 0.52 ± 0.24 µM; IC50 [6, 15]: > 10 µM; IC50 [7, 16]: > 10 µM
12 | O=C(CCCCC1SCC2NC(=O)NC21)NCCOCCOCCOCCn1cc(CCCOC(=O)NC(Cc2ccccc2)P(=O)(Oc2ccccc2)Oc2ccccc2)nn1 (stereo not shown) [compound 43] | – | – | – | – | – | – | – | IC50 ([1]; read-out: β-tryptase IC50, biotin probes, 15 min preincubation at 37 °C, mean ± SD): > 10 µM; IC50 ([2]; read-out: ChTryp IC50, biotin probes, 15 min preincubation at 37 °C, mean ± SD): 2.64 µM; IC50 ([3]; read-out: uPA IC50, biotin probes, 15 min preincubation at 37 °C, mean ± SD): > 10 µM; IC50 ([4]; read-out: Thrombin IC50, biotin probes, 15 min preincubation at 37 °C, mean ± SD): > 10 µM; IC50 ([5]; read-out: Trypsin-3 IC50, biotin probes, 15 min preincubation at 37 °C, mean ± SD): > 10 µM; IC50 ([6]; read-out: CatG IC50, biotin probes, 15 min preincubation at 37 °C, mean ± SD): 2.77 µM; IC50 ([7]; read-out: NE IC50, biotin probes, 15 min preincubation at 37 °C, mean ± SD): > 10 µM
13 | CC(C)C(NC(=O)OCCCc1cn(CCOCCOCCOCCNC(=O)CCCCC[C@H]2NC(=O)N[C@H]2C)nn1)P(=O)(Oc1ccccc1)Oc1ccccc1 (stereo partly shown) [compound 44] | > 10 | > 10 | > 10 | > 10 | > 10 | > 10 | 4.7 ± 0.2 | –
14 | C#CCCCOC(=O)NC(Cc1ccc(CN)cc1)P(=O)(Oc1ccccc1)Oc1ccccc1 (stereo not shown) [22b] | > 10 | > 10 | 2.3 ± 0.1 | > 10 | 3.82 ± 0.19 | 5.26 ± 0.68 | > 10 | –
15 | C#CCCCOC(=O)NC(c1ccc(N)cc1)P(=O)(Oc1ccc(Cl)cc1)Oc1ccc(Cl)cc1 (stereo not shown) [21b] | > 10 | – | > 10 | – | – | > 10 | – | –
16 | C#CCCCOC(=O)NC(Cc1ccc(CNC(=N)N)cc1)P(=O)(Oc1ccccc1)Oc1ccccc1 (stereo not shown) [40b] | > 10 | > 10 | > 10 | > 10 | > 10 | 6.16 ± 0.48 | > 10 | –
17 | C#CCCCOC(=O)NC(C1CCNCC1)P(=O)(Oc1ccccc1)Oc1ccccc1 (stereo not shown) [23b] | > 10 | > 10 | > 10 | > 10 | > 10 | > 10 | > 10 | –
18 | C#CCCCOC(=O)NC(c1ccc(N)cc1)P(=O)(Oc1ccccc1)Oc1ccccc1 (stereo not shown) [19b] | > 10 | 8.52 ± 1.81 | > 10 | 6.59 ± 3.9 | 9.06 ± 1.1 | > 10 | > 10 | –
19 | C[C@@H]1NC(=O)N[C@@H]1CCCCCC(=O)NCCOCCOCCOCCn1cc(CCCOC(=O)NC(Cc2ccccc2)P(=O)(Oc2ccccc2)Oc2ccccc2)nn1 (stereo partly shown) [compound 42] | > 10 | 2.07 ± 0.85 | > 10 | > 10 | > 10 | 3.23 ± 0.29 | > 10 | –
